From patent publication US8927500B2, “Peptidomimetic macrocycles” (Aileron Therapeutics, Inc., priority 2012, dated 2015) come the findings set out here.

Where only a bound is given, the exact number is not on record here.

In test [1] the target is MDM2 (Homo sapiens, UniProt Q00987). In words: Competitive fluorescence polarization assay for MDM2. Type of test: binding. Particulars: competitive FP assay, MDM2; for IC50: read-out: IC50 (MDM2); for Ki: read-out: Ki (MDM2). Background: Polarisation of emitted light reports the rotation of a fluorescent probe.
Test [2] deals with T1, MDMX (Homo sapiens, UniProt O15151).
T1 sequence (O15151 1-125): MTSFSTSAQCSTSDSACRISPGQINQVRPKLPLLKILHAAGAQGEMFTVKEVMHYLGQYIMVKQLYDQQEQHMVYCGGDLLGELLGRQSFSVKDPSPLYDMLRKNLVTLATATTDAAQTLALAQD
In words: Competitive fluorescence polarization assay for MDMX. As to conditions: competitive FP assay; for IC50: read-out: IC50 (MDMX); for Ki: read-out: Ki (MDMX). The test is classed as binding.

Chain of MDM2 (Q00987 1-125): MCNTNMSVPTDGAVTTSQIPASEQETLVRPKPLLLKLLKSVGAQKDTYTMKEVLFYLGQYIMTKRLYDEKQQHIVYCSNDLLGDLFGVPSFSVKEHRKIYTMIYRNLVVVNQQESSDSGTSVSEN

In general, IC50 refers to the concentration at which inhibition is half-maximal. The term Ki denotes a dissociation constant, usually derived from enzyme kinetics or from competition with a known ligand. Consider `CC(=O)N[C@@H](CC(C)C)C(=O)N[C@H](C(=O)N[C@@H](Cc1ccccc1)C(=O)N[C@]1(C)CCCCCCC=CCCC[C@@](C)(C(=O)N[C@@H](C)C(=O)N[C@@H](C)C(=O)N[C@@H](CC(C)C)C(=O)N[C@H](C)C(N)=O)NC(=O)[C@H](CC(C)C)NC(=O)[C@H](CCC(N)=O)NC(=O)[C@H](C)NC(=O)[C@H](Cc2c[nH]c3ccccc23)NC(=O)[C@H](Cc2c[nH]cn2)NC(=O)[C@H](CCC(=O)O)NC1=O)[C@@H](C)O` (single isomer, unassigned) [compound 227], for which the figures for the half-inhibitory concentration (IC50) in test [1] and in test [2] were below 0.01 µM and 0.1 to 1 µM, respectively. Moreover, the Ki was below 0.01 µM in test [1] and 0.01 to 0.1 µM in test [2].
As to `CC(=O)N[C@@H](CC(C)C)C(=O)N[C@H](C(=O)N[C@@H](Cc1ccccc1)C(=O)N[C@]1(C)CCCCCCC=CCCC[C@@](C)(C(=O)N[C@@H](CO)C(=O)N[C@@H](C)C(=O)N[C@@H](C)C(N)=O)NC(=O)[C@H](CC2CCC2)NC(=O)[C@H](CCC(N)=O)NC(=O)[C@H](C)NC(=O)[C@H](Cc2c[nH]c3ccccc23)NC(=O)[C@H](Cc2ccc(C(=O)O)cc2)NC(=O)[C@H](CCC(=O)O)NC1=O)[C@@H](C)O` (single isomer, unassigned) [compound 291], in test [1], the IC50 lay in the range of 0.01 to 0.1 µM and the Ki was below 0.01 µM. Further, in test [2], the IC50 lay within 0.01 to 0.1 µM and the Ki was below 0.01 µM.
Turning to `CC(=O)N[C@@H](CC(C)C)C(=O)N[C@H](C(=O)N[C@@H](Cc1ccccc1)C(=O)N[C@]1(C)CCCCCCC=CCCC[C@@](C)(C(=O)N[C@@H](CO)C(=O)N[C@@H](C)C(=O)N[C@@H](C)C(N)=O)NC(=O)[C@H](CC2CCC2)NC(=O)[C@H](CCC(N)=O)NC(=O)[C@H](CO)NC(=O)[C@H](Cc2c[nH]c3ccccc23)NC(=O)[C@H](Cc2ccc(O)cc2)NC(=O)[C@H](CCC(=O)O)NC1=O)[C@@H](C)O` (single isomer, unassigned) [compound 293], the results for the IC50 in test [1] and in test [2] were below 0.01 µM and 0.01 to 0.1 µM, respectively. The figures for the Ki in test [1] and in test [2] were below 0.01 µM and 0.01 to 0.1 µM, respectively.
For the compound `CCCC[C@H](NC(=O)[C@H](C)NC(=O)[C@H](C)NC(=O)[C@]1(C)CCCC=CCCCCCC[C@@](C)(NC(=O)[C@H](Cc2ccc(F)c(F)c2)NC(=O)[C@@H](NC(=O)[C@H](CC(C)C)NC(C)=O)[C@@H](C)O)C(=O)N[C@@H](C)C(=O)N[C@@H](Cc2ccc(O)cc2)C(=O)N[C@@H](Cc2c[nH]c3ccccc23)C(=O)N[C@@H](C)C(=O)N[C@@H](CCC(N)=O)C(=O)N[C@@H](CCC(C)C)C(=O)N1)C(=O)N[C@@H](C)C(N)=O` (single isomer, unassigned) [compound 308], in test [1], the IC50 fell in the range of 0.1 to 1 µM and the Ki was in the range of 0.01 to 0.1 µM. For the same compound, in test [2], the IC50 was in the range of 0.1 to 1 µM and the Ki lay within 0.01 to 0.1 µM.
Consider `CCCC[C@H](NC(=O)[C@H](C)NC(=O)[C@H](C)NC(=O)[C@]1(C)CCCC=CCCCCCC[C@@](C)(NC(=O)[C@H](Cc2ccccc2)NC(=O)[C@@H](NC(=O)[C@H](CC(C)C)NC(C)=O)[C@@H](C)O)C(=O)N[C@@H](C)C(=O)N[C@@H](Cc2ccc(C(=O)O)cc2)C(=O)N[C@@H](Cc2c[nH]c3ccccc23)C(=O)N[C@@H](C)C(=O)N[C@@H](CCC(N)=O)C(=O)N[C@@H](CCC(C)C)C(=O)N1)C(=O)N[C@@H](C)C(N)=O` (single isomer, unassigned) [compound 310], for which the IC50 in test [1] and in test [2] was 0.01 to 0.1 µM in each case. Besides, the Ki was below 0.01 µM in test [1] and 0.01 to 0.1 µM in test [2].
On to `CCCC[C@H](NC(=O)[C@H](C)NC(=O)[C@H](C)NC(=O)[C@]1(C)CCCC=CCCCCCC[C@@](C)(NC(=O)[C@H](Cc2ccccc2)NC(=O)[C@@H](NC(=O)[C@H](CC(C)C)NC(C)=O)[C@@H](C)O)C(=O)N[C@@H](C)C(=O)N[C@@H](Cc2ccc(O)cc2)C(=O)N[C@@H](Cc2c[nH]c3ccccc23)C(=O)N[C@@H](CO)C(=O)N[C@@H](CCC(N)=O)C(=O)N[C@@H](CCC(C)C)C(=O)N1)C(=O)N[C@@H](C)C(N)=O` (single isomer, unassigned) [compound 312], for which, in test [1], the IC50 lay within 0.01 to 0.1 µM and the Ki is 0.01 to 0.1 µM. In test [2], the IC50 was in the range of 0.1 to 1 µM and the Ki is 0.01 to 0.1 µM.
As for `CC(=O)N[C@@H](C)C(=O)N[C@@H](CC(C)C)C(=O)N[C@H](C(=O)N[C@@H](Cc1ccccc1)C(=O)N[C@]1(C)CCCCCCC=CCCC[C@@](C)(C(=O)N[C@@H](CO)C(=O)N[C@@H](C)C(=O)N[C@@H](C)C(N)=O)NC(=O)[C@H](CC2CCC2)NC(=O)[C@H](CCC(N)=O)NC(=O)[C@H](C)NC(=O)[C@H](Cc2c[nH]c3ccccc23)NC(=O)[C@H](Cc2ccc(O)cc2)NC(=O)[C@H](CCC(=O)O)NC1=O)[C@@H](C)O` (single isomer, unassigned) [compound 328], the IC50 in test [1] and in test [2] was 0.01 to 0.1 µM in each case. Also, the figures for the Ki in test [1] and in test [2] were below 0.01 µM and 0.01 to 0.1 µM, respectively.
Regarding `CCCC[C@H](NC(=O)[C@H](C)NC(=O)[C@H](CO)NC(=O)[C@]1(C)CCCC=CCCCCCC[C@@](C)(NC(=O)[C@H](Cc2ccccc2)NC(=O)[C@@H](NC(=O)[C@H](CC(C)C)NC(C)=O)[C@@H](C)O)C(=O)N[C@@H](CCC(=O)O)C(=O)N[C@@H](Cc2ccc(C(=O)O)cc2)C(=O)N[C@@H](Cc2c[nH]c3cc(Cl)ccc23)C(=O)N[C@@H](C)C(=O)N[C@@H](CCC(N)=O)C(=O)N[C@@H](CC2CCC2)C(=O)N1)C(=O)N[C@@H](C)C(N)=O` (single isomer, unassigned) [compound 334], the IC50 was below 0.01 µM in test [1] and 0.01 to 0.1 µM in test [2]. Besides, the Ki in test [1] and in test [2] was below 0.01 µM throughout.
For the compound `CCCC[C@H](NC(=O)[C@H](C)NC(=O)[C@H](C)NC(=O)[C@]1(C)CCCC=CCCCCCC[C@@](C)(NC(=O)[C@H](Cc2ccccc2)NC(=O)[C@@H](NC(=O)[C@H](CC(C)C)NC(C)=O)[C@@H](C)O)C(=O)N[C@@H](C)C(=O)N(C)[C@@H](Cc2ccc(O)cc2)C(=O)N[C@@H](Cc2c[nH]c3ccccc23)C(=O)N[C@@H](C)C(=O)N[C@@H](CCC(N)=O)C(=O)N[C@@H](CC(C)C)C(=O)N1)C(=O)N[C@@H](C)C(N)=O` (single isomer, unassigned) [compound 384], in test [1], the IC50 fell in the range of 0.1 to 1 µM and the Ki lay in the range of 0.1 to 1 µM. In test [2], the IC50 is above 1 µM and the Ki was above 1 µM.
Turning to `CCCC[C@H](NC(=O)[C@H](C)NC(=O)[C@H](C)NC(=O)[C@]1(C)CCCC=CCCCCCC[C@@](C)(NC(=O)[C@H](Cc2ccccc2)NC(=O)[C@@H](NC(=O)[C@H](CC(C)C)NC(C)=O)[C@@H](C)O)C(=O)N[C@@H](C)C(=O)N[C@@H](Cc2ccc(O)cc2)C(=O)N(C)[C@@H](Cc2c[nH]c3ccccc23)C(=O)N[C@@H](C)C(=O)N[C@@H](CCC(N)=O)C(=O)N[C@@H](CC(C)C)C(=O)N1)C(=O)N[C@@H](C)C(N)=O` (single isomer, unassigned) [compound 386], in test [1], the IC50 fell in the range of 0.1 to 1 µM and the Ki fell in the range of 0.1 to 1 µM. Moreover, in test [2], the IC50 was above 1 µM and the Ki was above 1 µM.
For the compound `CCCC[C@H](NC(=O)[C@H](C)NC(=O)[C@H](C)NC(=O)[C@]1(C)CCCC=CCCCCCC[C@@](C)(NC(=O)[C@H](Cc2ccccc2)NC(=O)[C@@H](NC(=O)[C@H](CC(C)C)NC(C)=O)[C@@H](C)O)C(=O)N[C@@H](C)C(=O)N[C@@H](Cc2ccc(O)cc2)C(=O)N[C@@H](Cc2c[nH]c3ccccc23)C(=O)NC(C)(C)C(=O)N[C@@H](CCC(N)=O)C(=O)N[C@@H](CC(C)C)C(=O)N1)C(=O)N[C@@H](C)C(N)=O` (single isomer, unassigned) [compound 390], in test [1], the IC50 is 0.01 to 0.1 µM and the Ki was below 0.01 µM. In test [2], the IC50 lay in the range of 0.01 to 0.1 µM and the Ki is 0.01 to 0.1 µM.
On to `CCCC[C@H](NC(=O)[C@@H](C)NC(=O)[C@H](C)NC(=O)[C@]1(C)CCCC=CCCCCCC[C@@](C)(NC(=O)[C@H](Cc2ccccc2)NC(=O)[C@@H](NC(=O)[C@H](CC(C)C)NC(C)=O)[C@@H](C)O)C(=O)N[C@@H](C)C(=O)N[C@@H](Cc2ccc(O)cc2)C(=O)N[C@@H](Cc2c[nH]c3ccccc23)C(=O)N[C@@H](C)C(=O)N[C@@H](CCC(N)=O)C(=O)N[C@@H](CC(C)C)C(=O)N1)C(=O)N[C@@H](C)C(N)=O` (single isomer, unassigned) [compound 394], for which the IC50 in test [1] is below 0.01 µM; in test [2] it was 0.01 to 0.1 µM. Also, the Ki in test [1] and in test [2] was below 0.01 µM in each case.
Regarding `CCCC[C@H](NC(=O)[C@H](C)NC(=O)[C@H](C)NC(=O)[C@]1(C)CCCC=CCCCCCC[C@@](C)(NC(=O)[C@H](Cc2ccccc2)NC(=O)[C@@H](NC(=O)[C@H](CC(C)C)NC(C)=O)[C@@H](C)O)C(=O)N[C@@H](C)C(=O)N[C@@H](Cc2ccc(O)cc2)C(=O)N[C@@H](Cc2c[nH]c3ccccc23)C(=O)N[C@@H](C)C(=O)N[C@@H](CCC(N)=O)C(=O)N[C@@H](CC(C)C)C(=O)N1)C(=O)NC(C)(C)C(N)=O` (single isomer, unassigned) [compound 398], in test [1], the IC50 lay within 0.01 to 0.1 µM and the Ki is below 0.01 µM. In test [2], the IC50 was in the range of 0.01 to 0.1 µM and the Ki was 0.01 to 0.1 µM.
On to `CCCC[C@H](NC(=O)[C@H](C)NC(=O)[C@H](C)NC(=O)[C@]1(C)CCCC=CCCCCCC[C@@](C)(NC(=O)[C@H](Cc2ccccc2)NC(=O)[C@@H](NC(=O)[C@H](CC(C)C)NC(C)=O)[C@@H](C)O)C(=O)N[C@@H](C)C(=O)N[C@@H](Cc2ccc(O)cc2)C(=O)N[C@@H](Cc2c[nH]c3ccccc23)C(=O)N[C@@H](C)C(=O)N[C@@H](CCC(N)=O)C(=O)N[C@@H](CC(C)C)C(=O)N1)C(=O)N(C)CC(N)=O` (single isomer, unassigned) [compound 402], for which, in test [1], the IC50 was below 0.01 µM and the Ki was below 0.01 µM. In test [2], the IC50 is below 0.01 µM and the Ki is below 0.01 µM.
